Test results taken from the NIST ThermoML archive (doi:10.1021/je4009238).

Assays:
[1] = xn = mol fraction of the nth substance listed; conditions: 101 kPa, Liquid
[2] = refractive index (Na D-line) (dimensionless); xn = mol fraction of the nth substance listed; conditions: 101 kPa, Liquid

CCCCn1cc[n+](C)c1.[Cl-] [1-butyl-3-methylimidazolium chloride] + CN(C)C=O
Conditions | mass density, [1] [kg/m3] | refractive index, [2] | viscosity, [1] [mPa·s]
288.15 K, x1 = 0.0086 | 957.7 | 1.43562 | 1.064
288.15 K, x1 = 0.0172 | 961.03 | 1.43757 | 1.13
288.15 K, x1 = 0.026 | 964.09 | 1.4401 | 1.234
288.15 K, x1 = 0.0351 | 967.36 | 1.44223 | 1.358
288.15 K, x1 = 0.0443 | 970.51 | 1.44442 | 1.441
288.15 K, x1 = 0.0541 | 973.65 | 1.4466 | 1.571
288.15 K, x1 = 0.0638 | 976.87 | 1.44861 | 1.678
288.15 K, x1 = 0.0738 | 979.65 | 1.45083 | 1.865
288.15 K, x1 = 0.0841 | 982.76 | 1.45282 | 2.004
288.15 K, x1 = 0.0947 | 985.77 | 1.45492 | 2.24
288.15 K, x1 = 0.1056 | 988.72 | 1.45766 | 2.397
288.15 K, x1 = 0.1167 | 991.56 | 1.45909 | 2.589
288.15 K, x1 = 0.1282 | 994.51 | 1.46111 | 2.95
288.15 K, x1 = 0.1399 | 997.33 | 1.46315 | 3.196
288.15 K, x1 = 0.152 | 1000.15 | 1.46516 | 3.685
298.15 K, x1 = 0.0086 | 948.35 | 1.43088 | 0.9285
298.15 K, x1 = 0.0172 | 951.98 | 1.43313 | 0.9836
298.15 K, x1 = 0.026 | 954.91 | 1.43537 | 1.069
298.15 K, x1 = 0.0351 | 958.49 | 1.43761 | 1.173
298.15 K, x1 = 0.0443 | 961.51 | 1.4398 | 1.234
298.15 K, x1 = 0.0541 | 964.75 | 1.44206 | 1.343
298.15 K, x1 = 0.0638 | 968.06 | 1.44422 | 1.444
298.15 K, x1 = 0.0738 | 970.86 | 1.44638 | 1.59
298.15 K, x1 = 0.0841 | 974.08 | 1.44852 | 1.679
298.15 K, x1 = 0.0947 | 977.24 | 1.45063 | 1.8
298.15 K, x1 = 0.1056 | 980.16 | 1.45271 | 1.978
298.15 K, x1 = 0.1167 | 983.01 | 1.45475 | 2.126
298.15 K, x1 = 0.1282 | 986.1 | 1.45676 | 2.379
298.15 K, x1 = 0.1399 | 988.96 | 1.45871 | 2.582
298.15 K, x1 = 0.152 | 991.87 | 1.46064 | 2.907
308.15 K, x1 = 0.0086 | 938.9 | 1.42611 | 0.8223
308.15 K, x1 = 0.0172 | 942.61 | 1.42836 | 0.8668
308.15 K, x1 = 0.026 | 945.63 | 1.4306 | 0.9394
308.15 K, x1 = 0.0351 | 949.34 | 1.43285 | 1.022
308.15 K, x1 = 0.0443 | 952.42 | 1.43505 | 1.097
308.15 K, x1 = 0.0541 | 955.77 | 1.43731 | 1.166
308.15 K, x1 = 0.0638 | 959.15 | 1.43948 | 1.239
308.15 K, x1 = 0.0738 | 962.05 | 1.44163 | 1.362
308.15 K, x1 = 0.0841 | 965.29 | 1.44378 | 1.432
308.15 K, x1 = 0.0947 | 968.56 | 1.4459 | 1.524
308.15 K, x1 = 0.1056 | 971.53 | 1.44799 | 1.665
308.15 K, x1 = 0.1167 | 974.49 | 1.45003 | 1.782
308.15 K, x1 = 0.1282 | 977.64 | 1.45205 | 1.963
308.15 K, x1 = 0.1399 | 980.61 | 1.45401 | 2.135
308.15 K, x1 = 0.152 | 983.6 | 1.45595 | 2.351
318.15 K, x1 = 0.0086 | 929.42 | 1.42147 | 0.7351
318.15 K, x1 = 0.0172 | 933.2 | 1.42379 | 0.772
318.15 K, x1 = 0.026 | 936.41 | 1.42611 | 0.8352
318.15 K, x1 = 0.0351 | 940.14 | 1.42842 | 0.8995
318.15 K, x1 = 0.0443 | 943.38 | 1.43069 | 0.9641
318.15 K, x1 = 0.0541 | 946.75 | 1.43303 | 1.026
318.15 K, x1 = 0.0638 | 950.28 | 1.43526 | 1.078
318.15 K, x1 = 0.0738 | 953.24 | 1.43748 | 1.175
318.15 K, x1 = 0.0841 | 956.58 | 1.4397 | 1.241
318.15 K, x1 = 0.0947 | 959.89 | 1.44188 | 1.311
318.15 K, x1 = 0.1056 | 962.99 | 1.44402 | 1.424
318.15 K, x1 = 0.1167 | 966.03 | 1.44612 | 1.518
318.15 K, x1 = 0.1282 | 969.28 | 1.4482 | 1.651
318.15 K, x1 = 0.1399 | 972.26 | 1.45021 | 1.796
318.15 K, x1 = 0.152 | 975.4 | 1.45219 | 1.944
